Several values for one entry are separate records, joined by “and”; a condition that tells them apart may be missing. Equal values may be shown once. Entries after “also recorded” stand apart in the source; their conditions may differ. Read-outs that look alike come from different tables or passages of the source.
Assays:
[1] = test system: SL1 (wt)-Nanoluciferase mRNA; assay type: biochemical, SARS-CoV-2
SL1 wt RNA = experiment: NMR-based KD estimation, ligand-detected 1D-1H titration; assay type: binding, SARS-CoV-2
SL1 Δbulge RNA = assay type: binding, SARS-CoV-2
[2] = test system: SL1 RNA labeled with 2AP at position A27; experiment: 2-Aminopurine fluorescence binding assay; parameters: species or system SARS-CoV-2; conditions: 0.5 μM 2AP-SL1, compound 0-400 μM, 25 °C, pH 6.2
[3] = test system: SARS-CoV-2 SL1 RNA (SL1 wt); assay type: binding; conditions: for wLOGSY factor / T2 reduction [%] / CSP [Hz]: 10 μM SL1 wt, 200 μM ligand; for wLOGSY factor / T2 reduction [%]: pH 6.2; for T2 reduction [%]: CPMG 100 vs 5 ms; for Rank: FBS ranking from summed ranks of CSP, wLOGSY and T2 results; for 1 - normalized FBS score: 0 lowest, 1 highest score; for FBS score: radar chart values; for CSP [Hz]: ligand 1H CSP, [RNA]:[ligand] 1:20, pH 6.2
SL1 RNA = experiment: RNA-detected NMR binding site mapping (2D-1H,1H-TOCSY and 1D-1H); parameters: species or system SARS-CoV-2; conditions: for 1H,1H CSPs [ppm] C15H5-H6 / 1H,1H CSPs [ppm] C16H5-H6 / 1H,1H CSPs [ppm] C19H5-H6 / 1H,1H CSPs [ppm] C20H5-H6 / 1H,1H CSPs [ppm] C21H5-H6 / 1H,1H CSPs [ppm] C28H5-H6 / 1H,1H CSPs [ppm] C32H5-H6 / 1H,1H CSPs [ppm] C33H5-H6 / 1H,1H CSPs [ppm] C34H5-H6 / 1H,1H CSPs [ppm] U9H5-H6 / 1H,1H CSPs [ppm] U10H5-H6 / 1H,1H CSPs [ppm] U11H5-H6 / 1H,1H CSPs [ppm] U13H5-H6 / 1H,1H CSPs [ppm] U17H5-H6 / 1H,1H CSPs [ppm] U18H5-H6 / 1H,1H CSPs [ppm] U25H5-H6: 2D TOCSY, RNA 150 μM, compound 1 mM, 298 K
[4] = test system: SL1 Δbulge-Nanoluciferase mRNA; assay type: biochemical, SARS-CoV-2
[5] = test system: β-Globin-Nanoluciferase mRNA; experiment: Cell-free translation assay in rabbit reticulocyte lysate, Nanoluciferase readout; assay type: biochemical; conditions: 0.2 μM mRNA, 2 μM compound
[6] = pH 6.2
[7] = Suppl. Table 7, ligand constant at 100, SL1 wt RNA concentration 0-250, read-out: KDest
[8] = ligand 100 μM, SL1 RNA 0 to 200 or 250 μM, 298 K, 600 MHz, pH 6.2, read-out: KD est

Row | Compound | FBS result (CSP, wLOGSY, T2 reduction) in words (SL1 Δbulge RNA) | wLOGSY factor [3] | T2 reduction [%] [3] [%] | Rank ([3]; SL1 wt) | CSP [Hz] [3] [Hz] | 1H,1H CSPs [ppm] C15H5-H6 (SL1 RNA) [ppm] | 1H,1H CSPs [ppm] C16H5-H6 (SL1 RNA) [ppm] | 1H,1H CSPs [ppm] C19H5-H6 (SL1 RNA) [ppm] | 1H,1H CSPs [ppm] C20H5-H6 (SL1 RNA) [ppm] | 1H,1H CSPs [ppm] C21H5-H6 (SL1 RNA) [ppm] | 1H,1H CSPs [ppm] C28H5-H6 (SL1 RNA) [ppm] | 1H,1H CSPs [ppm] C32H5-H6 (SL1 RNA) [ppm] | 1H,1H CSPs [ppm] C33H5-H6 (SL1 RNA) [ppm] | 1H,1H CSPs [ppm] C34H5-H6 (SL1 RNA) [ppm] | 1H,1H CSPs [ppm] U9H5-H6 (SL1 RNA) [ppm] | 1H,1H CSPs [ppm] U10H5-H6 (SL1 RNA) [ppm] | 1H,1H CSPs [ppm] U11H5-H6 (SL1 RNA) [ppm] | 1H,1H CSPs [ppm] U13H5-H6 (SL1 RNA) [ppm] | 1H,1H CSPs [ppm] U17H5-H6 (SL1 RNA) [ppm] | 1H,1H CSPs [ppm] U18H5-H6 (SL1 RNA) [ppm] | further results
1 | CNC(=O)Nc1nc2c(O)cc(O)cc2s1 [A.13] | severe line broadening; signal disappearance; also recorded: complete loss of ligand peaks | 0.33 | 100.00 | 25 | 4.11 | 0.0030 | 0.0032 | 0.0022 | 0.0022 | 0.0045 | 0.0278 | 0.0082 | 0.0032 | 0.0087 | 0.0067 | 0.0112 | 0.0702 | 0.0209 | 0.0051 | 0.0022 | Normalized inhibition rate (normalized activity score) [1]: 1.00; SL1 wt inhibition rate [%] [1]: 49.50% and ~50%; effect on translation of SL1 wt mRNA, in words [1]: significant and selective inhibition; also recorded: highest inhibition efficiency; also recorded: greatest translation inhibition; time-resolved SL1-driven translation, in words [1]: most pronounced delay and suppression; Kd (SL1 wt RNA; [7]): 312 µM; affinity trend compared to lead A [2]: increased affinity; Normalized FBS score ([3]; SL1 wt): 0.68; 1 - normalized FBS score ([3]; SL1 wt): 0.32; FBS score ([3]; SL1 wt): 25; 1H,1H CSPs [ppm] U25H5-H6 (SL1 RNA): 0.0020 ppm; 1H CSPs [ppm] A12H2 (SL1 RNA; RNA-detected 1D-1H): 0.0630 ppm; 1H CSPs [ppm] A29H2 (SL1 RNA; RNA-detected 1D-1H): 0.0190 ppm; inhibition rate [4]: ~0.5%; inhibition rate ([5]; relative to untreated control): ~10%
2 | CN(C)CC(=O)Nc1nc2ccc([N+](=O)[O-])cc2s1 [A.14] | no effects | 0.46 | 100.00 | 9 | 22.20 |  |  |  |  |  |  |  |  |  |  |  |  |  |  |  | solubility, in words [6]: poor solubility; CSP values relative to A.2 ([3]; ligand CSP, SL1 wt): 2–3 times
3 | COc1ccc2nc(NC(=O)CN3CCC[C@H](N)C3)sc2c1 [A.36] | no effects | 0.82 | 100.00 | 2 | 30.18 | 0.0010 | 0.0076 | 0.0036 | 0.0029 | 0.0010 | 0.0359 | 0.0186 | 0.0057 | 0.0079 | 0.0100 | 0.0089 | 0.0063 | 0.0308 | 0.0045 | 0.0039 | effect on translation of SL1 wt mRNA, in words [1]: nonspecific effects; Kd (SL1 wt RNA; Suppl. Table 7, ligand constant at 100, SL1 wt RNA concentration 0-200, read-out: KDest): 218 µM; Kd (SL1 wt RNA; [8]): 218 ± 90 µM; FBS binding to SL1, in words ([3]; ligand-detected NMR, SL1 wt): positive effect on SL1 binding; binding site / selectivity for the bulge from CSP and LB mapping, in words (SL1 RNA): weaker binding characteristics; 1H,1H CSPs [ppm] U25H5-H6 (SL1 RNA): 0.0120 ppm; 1H CSPs [ppm] A12H2 (SL1 RNA; RNA-detected 1D-1H): 0.0727 ppm; effect on translation of SL1 Δbulge mRNA, in words [4]: increased translation efficiency; effect on translation of β-globin mRNA, in words [5]: increased translation efficiency
4 | CNC(=O)Nc1nc2ccc(OC)cc2s1 [A] | no effects | 0.78 | 66.95 | 37 | 3.96 | 0.0081 | 0.0050 | 0.0050 | 0.0050 | 0.0095 | 0.0502 | 0.0124 | 0.0042 | 0.0054 | 0.0117 | 0.0179 | 0.0824 | 0.0242 | 0.0100 | 0.0010 | Normalized inhibition rate (normalized activity score) [1]: -0.03; SL1 wt inhibition rate [%] [1]: -1.66%; time-resolved SL1-driven translation, in words [1]: more subtle temporal effects; solubility, in words [6]: solubility issues; Kd (SL1 wt RNA; [7]): 136 µM; Kd (SL1 wt RNA; [8]): 136 ± 34 µM; CSP [Hz] (SL1 Δbulge RNA): 0.00 Hz; Normalized abs. CSP SL1 wt - CSP SL1 Δbulge (normalized selectivity score) (SL1 Δbulge RNA): 0.59; abs. CSP SL1 wt - CSP SL1 Δbulge (SL1 Δbulge RNA): 3.96; Normalized FBS score ([3]; SL1 wt): 1.00; 1 - normalized FBS score ([3]; SL1 wt): 0.00; FBS score ([3]; SL1 wt): 37; binding site / selectivity for the bulge from CSP and LB mapping, in words (SL1 RNA): binds selectively to the bulge; 1H,1H CSPs [ppm] U25H5-H6 (SL1 RNA): 0.0160 ppm; 1H CSPs [ppm] A12H2 (SL1 RNA; RNA-detected 1D-1H): 0.0041 ppm; effect on translation of SL1 Δbulge mRNA, in words [4]: increased translation efficiency; effect on translation of β-globin mRNA, in words [5]: increased translation efficiency
5 | CC(=O)c1ccc(NC(=O)CN2CCCC2)cc1 [B] |  |  |  |  |  | 0.0208 | 0.0120 | 0.0092 | 0.0030 | 0.0058 | 0.0263 | 0.0336 | 0.0110 | 0.0021 | 0.0063 | 0.0122 | 0.0220 | 0.0256 | 0.0061 | 0.0064 | solubility, in words [6]: precipitation; Kd (SL1 wt RNA; [7]): 150 µM; Kd (SL1 wt RNA; [8]): 150 ± 46 µM; 1H,1H CSPs [ppm] U25H5-H6 (SL1 RNA): 0.0085 ppm

Source: PMC12356538, “Targeting the SARS-CoV‑2 RNA Translation Initiation Element SL1 by Molecules of Low Molecular Weight” (Journal of the American Chemical Society, 2025)
